Results on one compound are retold here after patent US11000033B2, “Ketone or oxime compound, and herbicide” (NISSAN CHEMICAL CORPORATION, priority 2014, dated 2021).

Data set [1] relates to Stellaria media. The data set can be described thus: Test Example 5: herbicidal effect by foliage application, plastic box (symbol P). The data set is classed as in vivo. Conditions: 320 g/ha, 3 weeks after application. A digest of the protocol:
(§1)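 Herbicide, formulated as an emulsion and diluted in water, is sprayed onto the aerial parts of 14-day seedlings. These were grown at 25° C. to 30° C. in sterilized diluvial soil; effects are graded after 3 weeks.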

For data set [2], the system named is Echinochloa crus-galli var. crus-galli. The data set can be described thus: Test Example 5: herbicidal effect by foliage application, plastic box (symbol H). The data set is classed as in vivo. Conditions: 320 g/ha, 3 weeks after application. A digest of the protocol:
as §1

Data set [3] concerns Monochoria vaginalis. The data set can be described thus: Test Example 1: herbicidal activity, application before weed generation in submerged conditions (symbol C). The data set is classed as in vivo. The note with it: application herbicide amount 320 g/ha. A digest of the protocol:
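In a flooded pot test with alluvial soil, the emulsion-formulated compound was diluted with water to a predetermined amount and applied to the floodwater immediately on the sowing day. Pots were held in a greenhouse at 25–30 °C for 3 weeks before each weed was rated.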

In data set [4] the test system is Amaranthus retroflexus. The data set can be described thus: Test Example 5: herbicidal effect by foliage application, plastic box (symbol N). Conditions: 320 g/ha, 3 weeks after application. The data set is classed as in vivo. In a few lines:
as §1

The test system of data set [5] is Leptochloa chinensis. The experiment in a line: Test Example 3: herbicidal effect by foliage application, Wagner pot (symbol D). The data set is classed as in vivo. Conditions: application herbicide amount 320 g/ha. In a few lines: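 Foliar spray of a water-diluted emulsion at a predetermined herbicide amount, applied to 14-day-old plants. Seedlings were raised in flooded alluvial soil (0.1–0.5 cm water) at 25–30 °C in a greenhouse. Injury was rated after 3 weeks against fixed criteria.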

The subject of data set [6] is Veronica persica. The experiment in a line: Test Example 4: herbicidal effect by soil treatment (symbol R). The data set is classed as in vivo. The note with it: application herbicide amount 320 g/ha. In a few lines: (§2)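 Seeds were sown in sterilized diluvial soil, covered with about 1.5 cm of soil, and the soil surface was sprayed with a water-diluted emulsion of the compound at a predetermined rate. Plants grew in a greenhouse at 25° C. to 30° C.; effects were scored visually 3 weeks after application.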

Data set [7] deals with Chenopodium album. The experiment in a line: Test Example 4: herbicidal effect by soil treatment (symbol O). The data set is classed as in vivo. The note with it: application herbicide amount 320 g/ha. A digest of the protocol: as §2
For data set [8], the system named is Alopecurus myosuroides. The experiment in a line: Test Example 4: herbicidal effect by soil treatment (symbol J). The note with it: application herbicide amount 320 g/ha. The data set is classed as in vivo. In a few lines: as §2
Data set [9] has as its system corn. The data set can be described thus: Test Example 5: effect on crop by foliage application, plastic box (symbol c). The data set is classed as in vivo. Conditions: 320 g/ha, 3 weeks after application. In a few lines: (§3)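 Greenhouse test at 25° C. to 30° C. Seeds of crops and weeds were spot-sown in boxes of sterilized diluvial soil under roughly 1.5 cm soil cover, then grown for foliage treatment.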

In data set [10] the test system is Lolium multiflorum Lam. The data set can be described thus: Test Example 5: herbicidal effect by foliage application, plastic box (symbol K). The data set is classed as in vivo. Conditions: 320 g/ha, 3 weeks after application. A digest of the protocol: as §1
Data set [11] has as its system Avena fatua. The experiment in a line: Test Example 4: herbicidal effect by soil treatment (symbol I). The data set is classed as in vivo. Conditions: application herbicide amount 320 g/ha. In a few lines:
as §2

Data set [12] has as its system Chenopodium album. The experiment in a line: Test Example 5: herbicidal effect by foliage application, plastic box (symbol O). The data set is classed as in vivo. The note with it: 320 g/ha, 3 weeks after application. A digest of the protocol: as §1
The subject of data set [13] is Stellaria media. The experiment in a line: Test Example 4: herbicidal effect by soil treatment (symbol P). The data set is classed as in vivo. The note with it: application herbicide amount 320 g/ha. In a few lines: as §2
Data set [14] relates to rapeseed. The data set can be described thus: Test Example 5: effect on crop by foliage application, plastic box (symbol g). The data set is classed as in vivo. Conditions: 320 g/ha, 3 weeks after application. In a few lines:
as §3

For data set [15], the system named is Apera spica-venti. The experiment in a line: Test Example 4: herbicidal effect by soil treatment (symbol L). The data set is classed as in vivo. Conditions: application herbicide amount 320 g/ha. A digest of the protocol: as §2
Data set [16] relates to transplanted rice plant. The data set can be described thus: Test Example 1: effect on crop, application before weed generation in submerged conditions (symbol a). Conditions: application herbicide amount 320 g/ha. The data set is classed as in vivo. A digest of the protocol: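 Rice at 2.5 leaf stage transplanted into submerged soil (4 cm depth) sown with three weed species; herbicide applied before weed emergence.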

For data set [17], the system named is Galium spurium. The experiment in a line: Test Example 4: herbicidal effect by soil treatment (symbol Q). The data set is classed as in vivo. Conditions: application herbicide amount 320 g/ha. In a few lines:
as §2

Data set [18] deals with Abutilon theophrasti. The data set can be described thus: Test Example 5: herbicidal effect by foliage application, plastic box (symbol M). The data set is classed as in vivo. Conditions: 320 g/ha, 3 weeks after application. A digest of the protocol: as §1
The subject of data set [19] is Setaria viridis. The experiment in a line: Test Example 4: herbicidal effect by soil treatment (symbol G). The data set is classed as in vivo. The note with it: application herbicide amount 320 g/ha. A digest of the protocol:
as §2

Compound `CCCC(CC1CC(O)=C(c2c(C)cc(C)cc2C)C1=O)=NOC` (centres unmarked) [1-062] showed a melting point of 134 to 137 °C. Moreover, the “P: Stellaria media, herbicidal effect grade” value in [1] is 0 (Herbicidal ratio of 5% or lower (almost no effect)). Further, the “H: Echinochloa crus-galli var. crus-galli, herbicidal effect grade” value in data set [2] was 4 (Herbicidal ratio of 70% or higher and lower than 90%). Further, the “Herbicidal effect grade, C: Monochoria vaginalis” value in data set [3] was 1 (Herbicidal ratio of 5% or higher and lower than 20%). Further, the “N: Amaranthus retroflexus, herbicidal effect grade” value in data set [4] is 0 (Herbicidal ratio of 5% or lower (almost no effect)). Moreover, in data set [5], the “herbicidal effect on D (Leptochloa chinensis), grade 0-5” value was 3 (Herbicidal ratio of 40% or higher and lower than 70%). For the same compound, in data set [6], the “R (Veronica persica) herbicidal effect grade” value was 0 (Herbicidal ratio of 5% or lower (almost no effect)). Besides, the “O (Chenopodium album) herbicidal effect grade” value in data set [7] was 0 (Herbicidal ratio of 5% or lower (almost no effect)). For the same compound, the “J (Alopecurus myosuroides) herbicidal effect grade” value in data set [8] is 5 (Herbicidal ratio of 90% or more (almost completely withered)). The “c: corn, effect on crop grade” value in data set [9] is 4 (Herbicidal ratio of 70% or higher and lower than 90%). Besides, the “K: Lolium multiflorum Lam., herbicidal effect grade” value in data set [10] is reported as 5 (Herbicidal ratio of 90% or more (almost completely withered)). The “I (Avena fatua) herbicidal effect grade” value in data set [11] is given as 0 (Herbicidal ratio of 5% or lower (almost no effect)). The “O: Chenopodium album, herbicidal effect grade” value in data set [12] is recorded as 0 (Herbicidal ratio of 5% or lower (almost no effect)). Further, the “P (Stellaria media) herbicidal effect grade” value in data set [13] was 0 (Herbicidal ratio of 5% or lower (almost no effect)). For the same compound, in data set [14], the “g: rapeseed, effect on crop grade” value was 3 (Herbicidal ratio of 40% or higher and lower than 70%). Moreover, the “L (Apera spica-venti) herbicidal effect grade” value in data set [15] was 4 (Herbicidal ratio of 70% or higher and lower than 90%). Moreover, in data set [16], the “Effect grade on crop, a: transplanted rice plant” value is given as 5 (Herbicidal ratio of 90% or more (almost completely withered)). In addition, the “Q (Galium spurium) herbicidal effect grade” value in data set [17] is recorded as 0 (Herbicidal ratio of 5% or lower (almost no effect)). In addition, in data set [18], the “M: Abutilon theophrasti, herbicidal effect grade” value is 0 (Herbicidal ratio of 5% or lower (almost no effect)). For the same compound, in data set [19], the “G (Setaria viridis) herbicidal effect grade” value is recorded as 5 (Herbicidal ratio of 90% or more (almost completely withered)).
